According to patent US8772490B2, “Optically active diazabicyclooctane derivatives and process for preparing the same” (Meiji Seika Pharma Co., Ltd., priority 2010, dated 2014):

Experiments:
AmpC β-lactamase = AmpC β-lactamase (Pseudomonas aeruginosa (strain ATCC 15692 / DSM 22644 / CIP 104116 / JCM 14847 / LMG 12228 / 1C / PRS 101 / PAO1), UniProt P24735); assay type: biochemical
Protocol: The biological activity of the above-mentioned compounds represented by formulae (H) and (s) can be measured as follows. […] Further, using constitutive AmpC producing Pseudomonas aeruginosa, a combined antimicrobial activity (MIC) was measured when using Piperacillin (PIPC) as an antibiotic and the compound of formula (H) or (s) in combination to check whether or not the antimicrobial activity of PIPC could be restored.
Using P. aeruginosa PAO1 genome as a template, a DNA for encoding an AmpC β-lactamase domain excluding a signal peptide was amplified with PCR. This PCR product was incorporated into pET-28b(+)vector (Merck), introduced into E. coli BL21 (Merck), and, under induction of 1 mM isopropyl-β-D-(−)-thiogalactopyranoside (Nacalai Tesque), cultured overnight at 20° C. to express AmpC. After the bacterial cell was collected. AmpC was purified from the cell extract obtained by ultrasonic treatment, using CM Sepharose Fast Flow (GE Healthcare) and HiTrap Heparin HP (GE Healthcare) at 4° C.

[1] = test system: P. aeruginosa PAO1 variant, which constitutively expresses AmpC; assay: Combinatorial antibacterial activity: MIC of piperacillin (PIPC) with test compound, agar plate dilution; assay type: cell-based, Pseudomonas aeruginosa; conditions: for MIC (antimicrobial activity of Piperacillin (PIPC) in combination with the compound): Table 7, PIPC in combination with 4 μg/mL of the compound
Protocol: The biological activity of the above-mentioned compounds represented by formulae (H) and (s) can be measured as follows. Specifically, an enzyme inhibitory activity (IC50 value) against AmpC enzyme which is a class C β-lactamase was determined using nitrocephin as a substrate to check whether or not the compounds had the inhibitory activity and compare the activities of them. Further, using constitutive AmpC producing Pseudomonas aeruginosa, a combined antimicrobial activity (MIC) was measured when using Piperacillin (PIPC) as an antibiotic and the compound of formula (H) or (s) in combination to check whether or not the antimicrobial activity of PIPC could be restored.
The combinatorial effect of the test compound with a β-lactam agent against bacteria was evaluated using AmpC constitutive expression strain selected from P. aeruginosa PAO1 through agent exposure. Using piperacillin (PIPC, Sigma-Aldrich) as a β-lactam agent, measurement was conducted by agar plate dilution process in which minimal inhibitory concentration (MIC) of PIPC is based on Clinical and Laboratory Standards Institute (CLSI process). That is, an agara plate containing 4 μg/mL (final concentration) of test compound and PIPC at each concentration in Mueller-Hinton agar (Becton, Dickinson and Company) was made, and bacteria cultured overnight in cation-adjusted Muller-Hinton broth (Becton, Dickinson and Company) were adjusted in the same medium so as to have 10^4 CFU/spot and inoculated on a plate containing an agent. This plate containing an agent was cultured overnight at 35° C., and the minimum agent concentration in which no growth of bacteria is observed was determined to be MIC.

Sequence of AmpC β-lactamase (P24735 27-397): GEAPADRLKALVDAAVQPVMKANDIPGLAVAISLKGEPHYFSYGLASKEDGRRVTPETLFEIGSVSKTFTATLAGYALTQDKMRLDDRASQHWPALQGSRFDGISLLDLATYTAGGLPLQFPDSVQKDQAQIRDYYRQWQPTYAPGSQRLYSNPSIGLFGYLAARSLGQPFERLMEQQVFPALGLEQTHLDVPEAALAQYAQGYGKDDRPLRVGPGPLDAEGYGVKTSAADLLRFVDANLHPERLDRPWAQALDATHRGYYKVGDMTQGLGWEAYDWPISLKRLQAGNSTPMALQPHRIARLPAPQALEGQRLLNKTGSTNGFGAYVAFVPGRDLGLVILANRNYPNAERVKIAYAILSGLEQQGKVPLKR

NC(=O)[C@H]1CC[C@H]2CN1C(=O)N2OS(=O)(=O)[O-].[Na+] [Example 24, (2R,5S)-1,6-Diazabicyclo[3.2.1]octane-2-carboxamide, 7-oxo-6-(sulfoxy)-monosodium salt]
β-lactamase enzyme inhibitory activity (in words) (AmpC β-lactamase): exhibited no activity
effect of the compound in combination with an antibiotic (in words) [1]: exhibited no activity
MIC (antimicrobial activity of Piperacillin (PIPC) in combination with the compound) [1]: 64 µg/mL

NC(=O)[C@@H]1CC[C@@H]2CN1C(=O)N2OS(=O)(=O)[O-].[Na+] [Example 23, (2S,5R)-1,6-Diazabicyclo[3.2.1]octane-2-carboxamide, 7-oxo-6-(sulfoxy)-monosodium salt]
β-lactamase enzyme inhibitory activity (in words) (AmpC β-lactamase): exhibited the activities
effect of the compound in combination with an antibiotic (in words) [1]: exhibited the activities
MIC (antimicrobial activity of Piperacillin (PIPC) in combination with the compound) [1]: 4 µg/mL

C[C@]1(Cn2ccnn2)[C@H](C(=O)[O-])N2C(=O)C[C@H]2S1(=O)=O.[Na+] [TAZ, Tazobactam, reference compound]
MIC (antimicrobial activity of Piperacillin (PIPC) in combination with the compound) [1]: 64 µg/mL
